Values quoted from earlier work, collected in patent publication US20230355730A1, “METHODS FOR TREATING AUTOIMMUNE DISEASE USING BIOCOMPATIBLE BIOABSORBABLE NANOSPHERES” (UTI Limited Partnership, priority 2010, published 2023).

Test system: IGRP206-214-reactive CD8^+ T-cells
Conditions: cited from earlier work; for T1D protection: chronic treatment, moderate doses (NRP-A7), high doses (NRP-I4, NRP-V7, IGRP206-214)

KYNIANVFL (SEQ ID NO:7) [NRP-I4]
T1D protection: afforded T1D protection

KYNKANAFL (SEQ ID NO:6) [NRP-A7]
T1D protection: afforded T1D protection | avidity maturation of the IGRP206-214-reactive CD8^+ subset (pre-diabetic NOD mice, soluble peptide): blunted avidity maturation

KYNKANVFL (SEQ ID NO:8) [NRP-V7]
T1D protection: only afforded marginal protection

VYLKTNVFL (SEQ ID NO:4) [IGRP206-214, natural ligand]
T1D protection: only afforded marginal protection
